Data: US11571485B2, “Peptides and antibodies for detecting changes in alzheimer's disease brain and methods of use thereof” (Sanford Burnham Prebys Medical Discovery Institute, priority 2016, dated 2023)
Bridges are numbered along the chain shown (N, C = ends). FAM = fluorescein-amide / fluoresceinamine label

Legend:
[1] = test system: hippocampus of hAPP-J20 AD and wild-type mice; assay: In vivo CX7C T7 phage library screen, sequencing of phage recovered from hippocampus; design: species or system mouse; conditions: for Frequency/%: hippocampus 30 min after i.v. phage library, high throughput sequencing of inserts; for Representation in sequenced phage pools, AD versus normal brain: 9-month AD mouse vs normal mouse hippocampus
Procedure: In vivo phage screening was conducted using a T7 phage library expressing random peptides with the composition of CXnC (C=cysteine; X=any amino acid; n=7). The mouse model used for this screening is the hAPP-J20 that expresses amyloid precursor protein (APP) with both the Swedish and Indiana mutations (Murrell et al., Science 254, 97-99. (1991); Mullan et al., Nat. Genet. 1, 345-347. (1992)). Peptides homing to the hippocampus of these mice was the focus because the hippocampal region is where the AB-related lesions and damage are most prevalent early on in the disease.
A CX7C phage library was intravenously injected into 9 month-old AD and wild-type (WT) littermate mice, and allowed to circulate for 30 min, after which mice were perfused with saline, brains were collected, and the hippocampal region was dissected and subjected to phage titration and high throughput sequencing of the phage inserts. A surprise result was that the number of phage recovered from the AD hippocampus samples was much higher than the number recovered from a similar screen on normal littermates of the AD mice (FIG. 1A). […] BBB leakage has also been reported in AD patients.
Parallel phage library screens were performed on a normal mouse and a 9-month old AD transgenic mouse (J20 hAPP tg mouse line, which expresses transgenic amyloid precursor protein with two disease-related mutations). The library was intravenously injected into anesthetized mice and the hippocampal area of the brain was collected 30 min after intravenous injection of the library, phage was isolated from the tissue samples and subjected to high throughput sequencing of the peptide-encoding inserts in the phage DNA. Table 1 list most abundantly represented peptide from the two kinds of brains, and all peptides with significant representation in the AD brain and absent or nearly absent in the normal brain are listed in Table 2. Two peptides, CASPRLSKC (SEQ ID NO: 3) and CESPLLSEC (SEQ ID NO: 11), from among the highest scoring ones were subjected to detailed studies as described below.
hAPP-J20 mice were intravenously injected with 1e10 pfu of a CX7C (wherein X is any amino acid) naïve phage library, in 100 μL of PBS. The library was allowed to circulate for 30 minutes, after which mice were anesthetized with 2.5% avertin and perfused with PBS intracardially. The brain was removed and the hippocampus was extracted and homogenized in LB-NP 40 (1%) and phage was processed as described (Teesalu et al., Methods Enzymol 503, 35-56 (2012)). The phages in the lysate were rescued by amplification in E. coli and peptide-encoding portion of the phage genome was sequenced using Ion Torrent high throughput sequencing.

AD hippocampus = assay: Homing of intravenously injected individual peptide-displaying phages; format: in vivo, mouse; conditions: intravenously injected phage displaying the peptide
Source text: FIG. 1B relates to phage titration showing that about 5 times more phage were recovered from the AD hippocampus than from the normal control. In the sequencing, phages displaying the peptides code named CASP (SEQ ID NO: 3; CASPRLSKC), CES (SEQ ID NO: 11, CESPLLSEC), and DAG (SEQ ID NO: 102, CDAGRKQKC) dominated. Hippocampus from age-matched normal wild-type mouse brain was used as a control.

[2] = test system: hAPP-J20 mouse brain (hippocampus); conditions: i.v., 30 min circulation, 9-month-old AD (hAPP-J20) vs normal/WT mice
Procedure: The synthetic peptides were labeled with FAM and 100 nmol and were intravenously injected to 9-month old AD mice through the tail vein. The peptides were allowed to circulate for 30 min, after which the mice were perfused with 20 ml of PBS, the brains were collected and snap-frozen in OCT for sectioning. The peptides were detected by anti-FAM staining (green), nuclei were stained with DAPI (blue), and anti-CD31 was used to visualize blood vessels.
For peptide homing, mice were intravenously injected with 50 nmole peptide dissolved in PBS, and allowed to circulate for 30 min. Mice were then perfused intracardially with saline and all major organs were isolated and fixed in 4% paraformaldehyde (PFA) at pH 7.4 overnight. The organs were then washed with PBS and placed in graded sucrose solutions overnight before optimal cutting temperature compound (OCT) embedding. Ten-micro-meter-thick sections were cut and analyzed by immunostaining.
Frozen sections were permeabilized using PBS- 0.2% Triton™ X-100 (PBST), blocking was carried out using blocking buffer (5% BSA, 1% goat serum, 1% donkey serum in PBST. Primary antibodies were incubated in diluted (1%) blocking buffer overnight at dilutions 1/100 or 1/200 at 4° C., washed with PBST and incubated with secondary antibodies diluted 1/200 or 1/500 in 1% diluted buffer for 1 hour at room temperature, subsequently washed with PBST, counterstained with DAPI 1 μg/mL in PBS for 5 minutes, washed with PBS, mounted using aqueous mounting media (Vector Biolabs), and imaged using a confocal microscope (Zeiss LSM-710).

recombinant human CTGF = target: T1, recombinant human CTGF (Homo sapiens, UniProt P29279); assay: ELISA binding to recombinant CTGF; conditions: non-labeled DAG 0.5 mM
T1 construct: purchased Affymetrix 14-8503-80
T1 sequence (P29279 253-349 limits assumed): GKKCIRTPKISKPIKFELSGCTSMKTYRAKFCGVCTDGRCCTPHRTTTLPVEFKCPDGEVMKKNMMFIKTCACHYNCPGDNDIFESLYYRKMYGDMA
Procedure: FIG. 10 is a graphical representation relating to identification of a receptor for DAG. DAG binds to recombinant CTGF. FAM-DAG was incubated on ELISA plate coated with recombinant human CTGF at two different peptide concentrations of the FAM peptide alone (light gray bars), or in the presence of non-labeled DAG (0.5 mM) (dark gray bars). […] DAG was also shown to colocalize with CTGF. FAM-DAG was intravenously injected in 9-month-old hAPP-J20 and WT mice, allowed to circulate for 30 minutes, after which mice were perfused, and the brains were fixed, sectioned and stained for FAM (green) and CTGF (red).
Human CTGF recombinant protein (Affymetrix Cat #14-8503-80) was incubated on Nunc low-binding plates at concentration of 10 μg/ml for overnight at 4° C. Excess protein in the plates was removed by washing with PBS-T (PBS with 0.005% Tween 20). Plates were blocked with 200 μl of 3% non-fat milk in PBS for 1 hour at room temperature and washed with PBS-T once. Biotin-labeled peptide (at different concentrations) in PBS was added to the plate for 2 hours at 37° C. For peptide inhibition, non-labeled DAG peptide (0.5 mM) was added 30 minutes prior to addition of labeled peptide. The plates were washed with 100 μl PBS-T for three times to remove excess peptide. The bound peptide was detected by incubating with 100 μl of Vectastain ABC™ reagent (Vector labs, Burlingame, Calif.) for 30 minutes. The plate was washed with 100 μl PBS-T three times. Next, 100 μl of o-phenylenediamine dihydrochloride (OPD) silver and gold substrate (Sigma-Aldrich) was added to the wells and incubated at room temperature until visible color was observed (˜30 min). Adding 50 μl of 1 M H2SO4 stopped the reaction and the plate was read at 495 nm (FlexStation™ 3 Reader, Molecular Devices, Sunnyvale, Calif., USA).

[3] = Alzheimer's mouse (9-month old J20 hAPP tg)

For CADDGC [SEQ ID NO: 94], the Frequency/% ([1]; Wild-type mouse) was 1.244%.

CARVKK [SEQ ID NO: 91] was tested, and the Frequency/% ([1]; Wild-type mouse) was 1.67%.

In the case of CASPRLSKC [SEQ ID NO: 3], the “Representation in sequenced phage pools, AD versus normal brain” value [1] is reported as “dominated”, the Frequency/% [1, 3] is reported as 0.7226% and the “Phage accumulation in normal brain” value (AD hippocampus) is reported as “no accumulation in normal brain”. The “Phage homing to AD hippocampus” value (AD hippocampus) was “home to AD hippocampus with high specificity” and the “Homing of FAM-labeled peptide to hippocampus” value (“Homing of FAM-labeled peptide” below) [2] was “homed to the dentate gyms of AD brain but not normal brain”.

Substance CATPRDKRTC [SEQ ID NO: 87] has a Frequency/% ([1]; Wild-type mouse) of 2.373%.

CELSQ [SEQ ID NO: 97] gave a Frequency/% ([1]; Wild-type mouse) of 1.089%.

With CEQVRQKRC [SEQ ID NO: 4] the Frequency/% [1, 3] was 0.3956%.

With CESPLLSEC [SEQ ID NO: 11] the “Representation in sequenced phage pools, AD versus normal brain” value [1] was “dominated”, the Frequency/% [1, 3] was 0.316% and the “Phage accumulation in normal brain” value (AD hippocampus) was “no accumulation in normal brain”. For the same substance, the “Phage homing to AD hippocampus” value (AD hippocampus) was “home to AD hippocampus with high specificity” and the “Homing of FAM-labeled peptide” value [2] was “homed to the dentate gyms of AD brain but not normal brain”.

CKVRKSEGC [SEQ ID NO: 85] showed a Frequency/% ([1]; Wild-type mouse) of 3.559%.

CLSLD [SEQ ID NO: 88] showed a Frequency/% ([1]; Wild-type mouse) of 2.286%.

Substance CLTDNEETC [SEQ ID NO: 7] has a Frequency/% [1, 3] of 0.3341%.

CNSKETSRC [SEQ ID NO: 5] gave a Frequency/% [1, 3] of 0.3885%.

In the case of CRKQGEAKC [reference compound], the “Homing of FAM-labeled peptide” value [2] is reported as “essentially no homing to the hippocampus of hAPP-J20 mice”.

CRKQPTNVC [SEQ ID NO: 92] showed a Frequency/% ([1]; Wild-type mouse) of 1.495%.

Substance CRTPLNPRC [SEQ ID NO: 95] has a Frequency/% ([1]; Wild-type mouse) of 1.171%.

With CSDRRLIDC [SEQ ID NO: 90] the Frequency/% ([1]; Wild-type mouse) was 1.737%.

CSGDMETKC [SEQ ID NO: 89] gave a Frequency/% ([1]; Wild-type mouse) of 1.846%.

With CSGKAQRGC [SEQ ID NO: 100] the Frequency/% [1, 3] was 0.3349%.

CSKTTE [SEQ ID NO: 2] was tested, and the Frequency/% [1, 3] was 0.8549%.

With CSPE [SEQ ID NO: 6] the Frequency/% [1, 3] was 0.3766%.

For CSRTSKQAC [SEQ ID NO: 98], the Frequency/% ([1]; Wild-type mouse) was 1.022%.

For CSTNA [SEQ ID NO: 93], the Frequency/% ([1]; Wild-type mouse) was 1.426%.

CTKTAK [SEQ ID NO: 10] showed a Frequency/% [1, 3] of 0.3191%.

Substance CTREGNETC [SEQ ID NO: 96] has a Frequency/% ([1]; Wild-type mouse) of 1.098%.

CTVNGKRSC [SEQ ID NO: 99] gave a Frequency/% ([1]; Wild-type mouse) of 0.9707%.

With CVPKGKLVC [SEQ ID NO: 84] the Frequency/% ([1]; Wild-type mouse) was 4.678%.

In the case of CVPKGKLVLLSL [SEQ ID NO: 86], the Frequency/% ([1]; Wild-type mouse) is reported as 2.377%.

In the case of “FAM-CASPRLSKC: fluorescein-amide (FAM)-labeled CASPRLSKC peptide ({FAM}-CASPRLSKC-NH2; cysteine pairing not given here)”, the “Homing of FAM-labeled peptide” value [2] is reported as “homed to AD, but not normal, hippocampus”.

In the case of “FAM-CESPLLSEC: fluorescein-amide (FAM)-labeled CESPLLSEC peptide ({FAM}-CESPLLSEC-NH2; cysteine pairing not given here)”, the “Homing of FAM-labeled peptide” value [2] is reported as “homed to AD, but not normal, hippocampus”.

For “FAM-DAG: Fluoresceinamine (FAM)-labeled synthetic DAG peptide ({FAM}-CDAGRKQKC-NH2; disulfide 1-9 (inferred); not fully specified)”, the “Inhibition of CTGF binding by unlabeled DAG” value (recombinant human CTGF) was “Non-labeled DAG inhibited the binding of FAM-DAG” and the “Homing of FAM-labeled peptide” value [2] was “specifically homed AD hippocampus”.

Work on SSVDKL [SEQ ID NO: 9] yielded a Frequency/% [1, 3] of 0.3223%.
